Reference: article PMC12308784, “Organometallic Half-Sandwich Complexes of 1,10-Phenanthroline Derivatives with Improved Solubility, Albumin-Binding, and Nanoformulation Potential Targeting Drug Resistance in Cancer” (Inorganic Chemistry, 2025)

Tests used:
[1] = time-dependent stability in PBS’ by UV–vis and 1H NMR; type: physicochemical; details: pH 7.4, 100 mM chloride
Method: As a first step, time-dependent stability measurements were conducted by UV–visible (UV–vis) for all the metal complexes (Figure S13), focusing on their stability in a modified phosphate buffer saline (PBS’) medium to mimic conditions relevant to intravenous applications regarding the pH (7.4) and the chloride ion concentration (100 mM). […] Unfortunately, determining the equilibrium constants for direct complex formation was not possible due to the poor solubility of the ligands in water. […] The robust stability of the analogous IrCp* complexes was also reported.
Figure S14. Time-dependent UV -Vis spectra of metal complexes (a) cRuCymBP = 69 µM; (b) cRhCp*BP =
66 µM; (c) cRuCymDCP = 99 µM; (d) cRhCp*DCP = 85 µM) in PBS' buffer over 24 h (a-d). Spectra were recorded
Figure S15. Time-dependent 1H NMR spectra of metal complex RhCp*BP (66 µM) at pH 7.40 over 5 days.
{10% (v/v) D2O / 90% (v/v) H2O; PBS’; t = 25 °C} […]

[2] = molecular target: T1, human serum albumin (HSA) (Homo sapiens, UniProt P02768); experiment: HSA binding by capillary zone electrophoresis (CZE); details: for equiv of complex bound on HSA: CZE
T1 construct: purchased Sigma-Aldrich A8763
Method: UV–vis is a simple technique to follow the interaction of half-sandwich metal complexes with HSA in time. Charge transfer bands of the complexes were monitored over a 12 h period (as shown for the RhCp*BP – HSA (1.5:1) system in Figure S16). An initial rapid spectral change can be observed, which is followed by a slower spectral evolution. This phenomenon may indicate (i) a rapid binding interaction followed by a slow rearrangement of the coordination sphere around the Rh center or (ii) that the differing accessibility of binding sites results in biphasic binding kinetics. […] In contrast, minimal spectral changes were detected for the RuCym complexes. […] To further substantiate this observation, CZE was applied. In Figure , the peak of the free RhCp*BP complex is clearly separated from the peaks of the comigrating protein and the protein-bound complex. […] Whereas ca. 50% of the complex is protein-bound after the first 5 min, the equilibration takes ca. 3–4 h. This observation confirms that the accessibility of binding sites for the complexes is not equal in HSA.
6 (a) Electropherograms of the RhCp*BP complex in the absence and presence of 0.5 equiv HSA at pH = 7.4 followed in time and (b) the relative peak area of free RhCp*BP at 210 nm (migration time: 7.4 min) as a function of incubation time. {c complex = 95 μM, c HSA = 48 μM; U = 8 kV; current = 105 μA; PBS’; t = 25 °C}.
The interaction of complex [RhCp*(BP)-Cl]Cl (ca. 100 μM) with HSA (ca. 50 μM) in PBS’ medium was studied by an Agilent 7100 capillary electrophoresis system equipped with a diode-array UV–vis detector (200–600 nm). Fused silica capillaries of 48 cm total length with a 75 μm inner diameter were used (Agilent Technologies). The background electrolyte (BGE) was PBS’ buffer (pH = 7.4), in which the samples were also made. The conditioning process of new capillaries and daily preparation were performed as described formerly. In order to ensure a steady baseline, the capillary was flushed with BGE (2 min) before each run and was rinsed with NaOH (0.1 M; 1.5 min), H2O (1.5 min), and then with BGE (2 min) after each run. The capillary cassette was kept at 25 °C. The hydrodynamic injection was used at 50 mbar for 5 s injection time. For separation, an 8 kV voltage (with ca. 100 μA current) was applied. The sample run time was set to 18 min. The computer program ChemStation (Agilent) was used to record electropherograms.

[3] = release in PBS’ by modified equilibrium dialysis; type: physicochemical; details: nonformulated complex, PBS’ pH 7.4
Method: The release behavior of RhCp*BP in PBS’ buffer (pH = 7.4) was monitored using a modified equilibrium dialysis device (Figures S22 and S23), and the absorbance (proportional to the complex concentration) was measured for the dialysate phase by online UV–vis spectrophotometry over a period of 16 h.
The release experiments were conducted in PBS’ medium using modified rapid equilibrium dialysis (RED) inserts of Thermo Scientific. Briefly, the receiver compartment of the RED insert was removed in order to fit the dialysis bag into a regular 1 cm quartz cuvette (see Figure S19 for the layout). The dialysis bag (donor compartment) contained 300 μL of aqueous solution of the formulation or the metal complex alone (c = 60 μM) or the HSA or HTP-based formulations. The cuvette was the acceptor/receiver compartment containing PBS’ buffer (2.0 mL). The whole device was capped with the parafilm and the buffer in the cuvette was continuously stirred; no stirring was applied in the RED insert. The release of the complex into the buffer was monitored online using an Agilent Cary 3500 eight-channel photometer. All samples were done in duplicate.

[4] = 0.5 equiv HSA, PBS’ pH 7.4, 25 °C
[5] = c complex = 95 μM, c HSA = 48 μM, PBS’ pH 7.4, 25 °C

T1 sequence (P02768 25-609): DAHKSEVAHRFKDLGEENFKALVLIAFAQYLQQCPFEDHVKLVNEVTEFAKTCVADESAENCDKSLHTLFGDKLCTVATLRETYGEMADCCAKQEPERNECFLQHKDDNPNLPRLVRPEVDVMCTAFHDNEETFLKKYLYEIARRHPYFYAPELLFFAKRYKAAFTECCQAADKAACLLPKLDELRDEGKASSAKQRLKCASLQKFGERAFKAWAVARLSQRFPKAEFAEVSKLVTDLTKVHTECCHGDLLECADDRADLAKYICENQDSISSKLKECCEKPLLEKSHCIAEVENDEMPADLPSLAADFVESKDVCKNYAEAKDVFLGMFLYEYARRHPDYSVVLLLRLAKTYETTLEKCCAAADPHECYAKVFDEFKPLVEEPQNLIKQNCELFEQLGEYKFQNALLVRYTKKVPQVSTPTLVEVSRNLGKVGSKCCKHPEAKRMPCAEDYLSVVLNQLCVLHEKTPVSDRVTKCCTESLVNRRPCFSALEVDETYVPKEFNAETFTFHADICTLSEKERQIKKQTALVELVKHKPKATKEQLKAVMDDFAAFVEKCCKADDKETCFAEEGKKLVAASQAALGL

stability in PBS’ over 24 h [1]	free complex after 4 h [2, 4] [%]	complex protein-bound after the first 5 min [2, 5]	equilibration time of HSA binding [2, 5] [h]	time for complete diffusion into PBS’ medium [3]	Compound	equiv of complex bound on HSA [2]	metal complex unbound after 24 h [2, 4] [%]
no changes	7	ca. 50%	3 to 4	approximately 9 h	[Rh(III)(η^5-C5Me5)(bathophenanthroline)Cl]Cl [RhCp*BP]	at least 2 equiv	
					Cc1c(C)c(C)[c-](C)c1C.Clc1ccnc2c1ccc1c(Cl)ccnc12.[Cl-].[Cl-].[Rh+3] [RhCp*DCP, [Rh(III)(η^5-C5Me5)(4,7-dichloro-1,10-phenanthroline)Cl]Cl]	at least 2 equiv	21
